Reference: ChEMBL document CHEMBL1139627, “A new orally bioavailable dual adenosine A2B/A3 receptor antagonist with therapeutic potential” (Bioorg Med Chem Lett, 2005)

Assays:
[1] = molecular target: T1, Adenosine receptor A1 (Homo sapiens, UniProt P30542); experiment: Displacement of [3H]DPCPX from human adenosine A1 receptors transfected in CHO cells; format: cell-based
T1 sequence (P30542 whole entry): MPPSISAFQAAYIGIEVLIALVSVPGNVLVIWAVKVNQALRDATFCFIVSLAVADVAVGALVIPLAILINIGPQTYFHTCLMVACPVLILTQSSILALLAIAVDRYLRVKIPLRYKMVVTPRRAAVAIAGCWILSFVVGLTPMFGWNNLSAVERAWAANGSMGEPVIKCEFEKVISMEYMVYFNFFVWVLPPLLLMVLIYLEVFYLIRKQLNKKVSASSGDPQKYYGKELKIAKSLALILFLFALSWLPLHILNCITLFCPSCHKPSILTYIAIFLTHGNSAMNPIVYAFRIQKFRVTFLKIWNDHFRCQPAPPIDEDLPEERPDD

[2] = molecular target: Adenosine receptor A2a (Homo sapiens, UniProt P29274); experiment: Displacement of [3H]ZM-241,385 from human adenosine A2a receptors transfected in HEK 293 cells; format: cell-based, HEK293
Sequence of Adenosine receptor A2a (P29274 whole entry): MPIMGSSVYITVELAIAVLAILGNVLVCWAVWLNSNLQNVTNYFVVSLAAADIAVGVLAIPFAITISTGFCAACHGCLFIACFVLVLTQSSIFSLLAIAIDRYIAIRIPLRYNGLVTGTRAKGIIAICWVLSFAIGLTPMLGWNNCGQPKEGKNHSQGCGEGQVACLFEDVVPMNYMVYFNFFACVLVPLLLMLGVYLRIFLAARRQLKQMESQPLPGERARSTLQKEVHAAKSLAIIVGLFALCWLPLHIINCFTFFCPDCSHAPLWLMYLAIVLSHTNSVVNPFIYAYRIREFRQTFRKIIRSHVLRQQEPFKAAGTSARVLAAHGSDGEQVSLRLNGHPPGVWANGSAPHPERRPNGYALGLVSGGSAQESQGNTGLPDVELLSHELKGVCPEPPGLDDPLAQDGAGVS

[3] = molecular target: T2, Adenosine receptor A3 (Homo sapiens, UniProt P0DMS8); experiment: Displacement of [125I]-AB-MECA from human adenosine A3 receptors transfected in CHO cells; format: cell-based
T2 sequence (P0DMS8 whole entry): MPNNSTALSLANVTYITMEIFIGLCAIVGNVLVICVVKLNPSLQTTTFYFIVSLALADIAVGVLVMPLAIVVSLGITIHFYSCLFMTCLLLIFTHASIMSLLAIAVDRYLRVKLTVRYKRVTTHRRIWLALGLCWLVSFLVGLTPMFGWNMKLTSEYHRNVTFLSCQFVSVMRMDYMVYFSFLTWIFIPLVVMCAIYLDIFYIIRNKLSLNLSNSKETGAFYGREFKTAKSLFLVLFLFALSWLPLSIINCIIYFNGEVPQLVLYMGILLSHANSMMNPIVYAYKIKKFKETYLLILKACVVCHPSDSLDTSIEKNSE

[4] = molecular target: T3, Adenosine receptor A2b (Homo sapiens) (UniProt P29275); experiment: Inhibition of luciferase production elicited by NECA by compound in CHO cells transfected with human adenosine A2b receptor and a luciferase expressing reporter plasmid in a reporter gene assay; format: cell-based
T3 sequence (whole entry): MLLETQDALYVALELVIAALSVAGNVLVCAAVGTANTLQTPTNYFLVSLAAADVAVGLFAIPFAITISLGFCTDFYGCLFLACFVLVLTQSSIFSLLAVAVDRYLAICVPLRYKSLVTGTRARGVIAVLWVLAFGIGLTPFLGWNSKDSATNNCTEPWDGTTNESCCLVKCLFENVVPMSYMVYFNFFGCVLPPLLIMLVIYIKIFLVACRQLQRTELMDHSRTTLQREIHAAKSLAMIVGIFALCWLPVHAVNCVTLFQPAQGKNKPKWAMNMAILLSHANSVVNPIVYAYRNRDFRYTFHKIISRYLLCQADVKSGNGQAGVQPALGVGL

[5] = Time to reach Cmax after oral administration at 1 mL/kg concentration in wistar rat; format: ADME, organism-based; settings: in vivo
[6] = Half life in wistar rat was determined by intra venous administration of 2:1 PEG200/0.1 M phosphate buffer at 0.1 mL/kg concentration; format: ADME; settings: in vivo, iv
[7] = Bioavailability of compound after oral administration at 1 mL/kg concentration in wistar rat; format: ADME, organism-based; settings: in vivo, read-out: BAV
[8] = Volume abserved at study state after intra venous administration of 2:1 PEG200/0.1 M phosphate buffer at 0.1 mL/kg concentration in wistar rat; format: ADME, organism-based; settings: in vivo, iv, read-out: Vss
[9] = Maximum concentration in wistar rat at 1 mL/kg concentration of compound after oral administration; format: ADME, organism-based; set-up: dose 1 mL/kg, route oral; settings: in vivo
[10] = Half life of trhe compound after oral administration at 1 mL/kg concentration in wistar rat; format: ADME, organism-based; settings: in vivo
[11] = Clearance in wistar rat was determined by intra venous administration of 2:1 PEG200/0.1 M phosphate buffer at 0.1 mL/kg concentration; format: ADME, organism-based; settings: in vivo, iv

Compound	Ki [1]	Ki [2]	Ki [3]	Kb [4]	Tmax [5]	half-life [6]	bioavailability [7]	Vd [8]	Cmax [9]	half-life [10]	clearance [11]
N#Cc1cccc(-c2nc(Nc3ccccn3)sc2-n2cncn2)c1	1760 nM	2020 nM	24 nM	53 nM							
N#Cc1cccc(-c2nc(Nc3cccnc3)sc2-n2cncn2)c1	1530 nM	2570 nM	698 nM	86 nM							
Cc1cccc(Nc2nc(-c3cccc(C#N)c3)c(-n3cncn3)s2)n1	> 10000 nM	> 10000 nM	37 nM	20 nM							
Cc1nccn1-c1sc(Nc2cnccn2)nc1-c1cccc(C#N)c1	197 nM	1670 nM	10 nM	3 nM	39.3 min	29 min	30.2%	3.02 L/kg	560 nM	191 min	94.4 mL/min/kg
N#Cc1cccc(-c2nc(Nc3cnccn3)sc2-n2ccnc2)c1	46 nM	349 nM	11 nM	7 nM							
N#Cc1cccc(-c2nc(Nc3cccnc3)sc2-n2ccnc2)c1	560 nM	2700 nM	124 nM	92 nM							
CC(=O)Nc1nc(-c2cccc(C#N)c2)c(-n2cncn2)s1	2840 nM	5610 nM	134 nM	365 nM							
Cc1cccc(Nc2nc(-c3cccc(C#N)c3)c(-n3ccnc3C)s2)n1	224 nM	175 nM	419 nM	10 nM							
N#Cc1cccc(-c2nc(Nc3cnccn3)sc2-n2cncn2)c1	2090 nM	3580 nM		12 nM							
Cc1cccc(Nc2nc(-c3cccc(C#N)c3)c(-n3ccnc3)s2)n1	8 nM	2700 nM	44 nM	92 nM							
N#Cc1cccc(-c2nc(Nc3ccncc3)sc2-n2cncn2)c1		4160 nM	304 nM	62 nM							
